We go through one substance from patent publication US10617736B2, “Method for modulating insulin-independent glucose transport using teneurin C-terminal associated peptide (TCAP)” (priority 2014, dated 2020).

Holding throughout (type): cell-based, mouse
One assay deals with C2C12 myocytes. Description: 3H-2-deoxyglucose uptake in C2C12 myocytes. Conditions: 100 nM. The procedure:
The effect of TCAP-1 on glucose uptake in muscle cells was examined in a C2C12 mouse myocyte cell line. C2C12 myocytes were cultured in Dulbecco's Modified Eagle Medium (DMEM) containing 4500 mg/L D-glucose, L-glutamine, and 25 mM HEPES buffer, without sodium pyruvate or phenol red (Gibco, Cat. No. 21063029), supplemented with 20% heat-inactivated fetal bovine serum (FBS), 100 U/ml penicillin and 100 μg/ml streptomycin. Cells were maintained at 80% confluency at 37° C. in a humidified CO2 incubator. To initiate differentiation, myocytes were further cultured in DMEM supplemented with 10% heat-inactivated horse serum (HS), transferrin, 100 U/ml penicillin and 100 μg/ml streptomycin. Myocytes were allowed to differentiate into multi-nucleated myotubes for 5 days before experimentation. 24 hours prior to experimentation, medium was changed. At day 5 of differentiation, cells were deprived of serum and incubated in Minimal Essential Medium containing 1000 mg/L D-glucose, L-glutamine, without nucleosides (Gibco, Cat. No. 12561049) for 5 hours at 37° C. prior to incubation with insulin, TCAP-1, or saline. Cells were washed twice in glucose-free HEPES-buffered solution (HBS), containing 140 mM NaCl, 20 mM HEPES, 5 mM KCl, 2.5 mM MgSO4 and 1 mM CaCl2, followed by determinations of transport of 3H-2-deoxyglucose for 10 minutes at 0.5 μCi/ml at room temperature. Uptake of 3H-2-deoxyglucose was stopped immediately after 10 minutes with three washes of ice-cold 0.9% NaCl solution. Parallel experiments with 5 μM of cytochalasin B were done to ensure that glucose uptake was of transporter-inhibitable transport The cells were digested with 1 ml of 0.05 N NaOH. Cell lysates were used for determination of radioactivity by a beta liquid scintillation counter. Experiments were repeated three times with 3 wells per condition per replication. […] Cell lysates were used for determination of radioactivity by a beta liquid scintillation counter. […]

For assay [1], the system named is mHypoE-38 neurons. Description: 3H-2-deoxyglucose uptake in mHypoE-38 hypothalamic neurons. The method, then: The effect of TCAP-1 on glucose uptake in brain cells was examined in immortalized […] hypothalamic cells. Immortalized mHypoE-38 hypothalamic embryonic mouse neurons (gift from Dr. Denise Belsham, University of Toronto) were grown in Dulbecco's Modified Eagle Medium (DMEM) containing 4500 mg/L D-glucose, L-glutamine, and 25 mM HEPES buffer, without sodium pyruvate or phenol red (Gibco, Cat. No. 21063029), supplemented with 5% heat-inactivated fetal bovine serum (FBS), 100 U/ml penicillin and 100 μg/ml streptomycin. Cells were maintained at 60-70% confluency at 37° C. in a humidified CO2 incubator. To passage, cells were washed once in sterile PBS, trypsinized and seeded at a density of 100,000 cells per 3.5 cm plate and allowed to grow for 2-3 days. 24 hours prior to experimentation, medium was changed. mHypoE-38 hypothalamic cells were grown in 6-well tissue culture dishes (Corning Incorporated, Cat. No. 3516) at a seeding density of200 000 cells/9.5 cm^2 well in a 37° C. normoxic incubator. Cultures were grown for 36 hours to 85% confluence prior to experimentation. At day 3 post-plating, cells were washed twice with Locke's buffer (154 mM NaCl, 5.6 mM KCl, 2.3 mM CaCl2, 3.6 mM NaHCO3, 5 mM HEPES) without serum and glucose. The culture was incubated in the Locke's buffer for 1 hour at 37° C. followed by exposure to 100 nM insulin, 100 nM TCAP-1, 100 nM SC-TCAP-1, or saline. KCl (40 mM) and […] (0.5 μCi/ml) were added to culture 5 minutes before termination of treatment exposure. Uptake of ^3H-2-deoxyglucose was stopped immediately after 5 minutes with three washes of ice-cold 0.9% NaCl solution. Parallel experiments with 5 μM of cytochalasin B were performed to ensure that glucose uptake was of transporter-inhibitable transport. The cells were digested with 1 ml of 0.05 N NaOH at 0, 15, 30, 45, 60, 90 and 120 minutes after treatment. Cell lysates were used for determination of radioactivity by a beta liquid scintillation counter. Experiments were repeated three times with 3 wells pear condition per replication. […] hypothalamic cells were cultured as above and treated with 100 nM insulin, 100 nM TCAP-1 or saline, exposed to 5.6 mM or 40 mM KCl and 0.5 μCi/well 3H-2-deoxy glucose, and subsequently lysed with 50 mM NaOH. Radioactivity in cell lysates was counted using a liquid scintillation counter.

The subject of assay [2] is mHypoE-38 neurons. The description is as above. The following applies: Hypo-E38 cells, potassium-free media (FIG. 11F, G).

Take insulin: the 3H-2-deoxyglucose uptake with C2C12 myocytes (90 minutes) amounted to 332.321±87.296%; in the assay on C2C12 myocytes (after 30 minutes) it was 284.520±47.129%; in the assay on mHypoE-38 neurons [1] (100 nM, 5.6 mM KCl (low KCl)), 91.423±5.226%; in the assay with mHypoE-38 neurons [1] (100 nM, 40 mM KCl exposure) it was 288.572±24.527%; with mHypoE-38 neurons [1] (cells pretreated with MEK inhibitor (U0126) for 1 hour, 40 mM KCl), 108.069±13.671; in the assay with mHypoE-38 neurons [1] (non-MEK-inhibited cells, 40 mM KCl) it was 162.846±1.813. The “3H-2-deoxyglucose uptake value relative to baseline” value in the assay with mHypoE-38 neurons [1] (100 nM, 40 mM KCl, 45 minutes) was determined as 253±21.38%. Further, in the assay with mHypoE-38 neurons [1] (Hypo-E38 cells (FIG. 11C-E)), the “3HDG uptake in whole cells over time” value is “uptake in 3HDGlucose within 30 min and remained high until after 60 min”. For the same substance, the “3HDG uptake in potassium-free media” value in the assay with mHypoE-38 neurons [2] is “decreased insulin-dependent glucose uptake to baseline levels”.
